Laboratory results: PubChem BioAssay AID1963986 (Molecular Pharmacology Branch, DTP, NCI, 2024)

Test system: 171881-019-R-J1-PDC tumor spheroid viability
Assay: Anticancer human tumor 171881-019-R-J1-PDC patient-derived invasive breast carcinoma cell line growth inhibition [PI3K]
Conditions: spheroids with HUVEC and MSC; for IC50: curve of first compound; for viability, T/C: stronger effect = lower value
Procedure, shortened: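 Agents were dosed from a top concentration near clinical Cmax (otherwise 10 microM) in half-log decrements, alone or combined with PI3K inhibitors. The spheroids contain tumor cells plus endothelial (HUVEC) and MSC stroma; viability is measured.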

[1] = second compound 0.0316 µM, first compound 0.0316 µM
[2] = second compound 0.0316 µM, first compound 0.1 µM
[3] = second compound 0.0316 µM, first compound 0.316 µM
[4] = second compound 0.0316 µM, first compound 1 µM
[5] = second compound 0.0316 µM, first compound 3.16 µM
[6] = second compound 0.0316 µM, first compound 10 µM
[7] = second compound 0.1 µM, first compound 0.0316 µM
[8] = second compound 0.1 µM, first compound 0.1 µM
[9] = second compound 0.1 µM, first compound 0.316 µM
[10] = second compound 0.1 µM, first compound 1 µM
[11] = second compound 0.1 µM, first compound 3.16 µM
[12] = second compound 0.1 µM, first compound 10 µM
[13] = second compound 0.316 µM, first compound 0.0316 µM
[14] = second compound 0.316 µM, first compound 0.1 µM
[15] = second compound 0.316 µM, first compound 0.316 µM
[16] = second compound 0.316 µM, first compound 1 µM
[17] = second compound 0.316 µM, first compound 3.16 µM
[18] = second compound 0.316 µM, first compound 10 µM
[19] = second compound 1 µM, first compound 0.0316 µM
[20] = second compound 1 µM, first compound 0.1 µM
[21] = second compound 1 µM, first compound 0.316 µM
[22] = second compound 1 µM, first compound 1 µM
[23] = second compound 1 µM, first compound 3.16 µM
[24] = second compound 1 µM, first compound 10 µM
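Further: spheroids exposed to compound for 7 days before viability read.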
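Wherever viability, T/C is given: 100% = DMSO vehicle-treated spheroids.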

Question: How did the IC50 (second compound 0.00316 µM) turn out when CC1(C)CCC(CN2CCN(c3ccc(C(=O)NS(=O)(=O)c4ccc(NCC5CCOCC5)c([N+](=O)[O-])c4)c(Oc4cnc5[nH]ccc5c4)c3)CC2)=C(c2ccc(Cl)cc2)C1 + COc1c(OCCCN2CCOCC2)ccc2c3n(c(=NC(=O)c4cnc(N)nc4)nc12)CCN3 was run?
Answer: Its IC50 is > 10000 nM.

Question: What about the IC50 (second compound 0.01 µM) of the same compound?
Answer: Its IC50 is 1070 nM.

Question: What about the IC50 (second compound 0.0316 µM) of the same compound?
Answer: The IC50 was < 31.6 nM.

Question: What about the IC50 (second compound 0.1 µM) of the same compound?
Answer: Its IC50 is < 31.6 nM.

Question: And the IC50 (second compound 0.316 µM)?
Answer: The IC50 was < 31.6 nM.

Question: And the IC50 (second compound 1 µM)?
Answer: The IC50 was < 31.6 nM.

Question: What about the viability, T/C (second compound 0.00316 µM, first compound 0.0316 µM) of the same compound?
Answer: The viability, T/C was 67.9%.

Question: And the viability, T/C (second compound 0.00316 µM, first compound 0.1 µM)?
Answer: Its viability, T/C is 71.5%.

Question: What about the viability, T/C (second compound 0.00316 µM, first compound 0.316 µM) of the same compound?
Answer: The viability, T/C was 76.5%.

Question: And the viability, T/C (second compound 0.00316 µM, first compound 1 µM)?
Answer: Its viability, T/C is 75.8%.

Question: And the viability, T/C (second compound 0.00316 µM, first compound 3.16 µM)?
Answer: Its viability, T/C is 50.7%.

Question: What about the viability, T/C (second compound 0.00316 µM, first compound 10 µM) of the same compound?
Answer: Its viability, T/C is 56.9%.

Question: What about the viability, T/C (second compound 0.01 µM, first compound 0.0316 µM) of the same compound?
Answer: The viability, T/C was 50.3%.

Question: And the viability, T/C (second compound 0.01 µM, first compound 0.1 µM)?
Answer: The viability, T/C was 54.2%.

Question: And the viability, T/C (second compound 0.01 µM, first compound 0.316 µM)?
Answer: Its viability, T/C is 52.1%.

Question: What about the viability, T/C (second compound 0.01 µM, first compound 1 µM) of the same compound?
Answer: Its viability, T/C is 50.6%.

Question: What about the viability, T/C (second compound 0.01 µM, first compound 3.16 µM) of the same compound?
Answer: The viability, T/C was 36.4%.

Question: And the viability, T/C (second compound 0.01 µM, first compound 10 µM)?
Answer: The viability, T/C was 46.5%.

Question: And the viability, T/C [1]?
Answer: The viability, T/C was 31.2%.

Question: What about the viability, T/C [2] of the same compound?
Answer: The viability, T/C was 27.1%.

Question: And the viability, T/C [3]?
Answer: The viability, T/C was 26.7%.

Question: What about the viability, T/C [4] of the same compound?
Answer: The viability, T/C was 31.9%.

Question: And the viability, T/C [5]?
Answer: The viability, T/C was 27.6%.

Question: What about the viability, T/C [6] of the same compound?
Answer: The viability, T/C was 27.7%.

Question: And the viability, T/C [7]?
Answer: Its viability, T/C is 9.62%.

Question: And the viability, T/C [8]?
Answer: The viability, T/C was 8.56%.

Question: And the viability, T/C [9]?
Answer: Its viability, T/C is 8.91%.

Question: And the viability, T/C [10]?
Answer: The viability, T/C was 8.46%.

Question: And the viability, T/C [11]?
Answer: The viability, T/C was 8.91%.

Question: What about the viability, T/C [12] of the same compound?
Answer: The viability, T/C was 7.62%.

Question: What about the viability, T/C [13] of the same compound?
Answer: The viability, T/C was 2.51%.

Question: And the viability, T/C [14]?
Answer: Its viability, T/C is 1.88%.

Question: What about the viability, T/C [15] of the same compound?
Answer: Its viability, T/C is 2.5%.

Question: What about the viability, T/C [16] of the same compound?
Answer: Its viability, T/C is 2.1%.

Question: What about the viability, T/C [17] of the same compound?
Answer: The viability, T/C was 1.72%.

Question: What about the viability, T/C [18] of the same compound?
Answer: The viability, T/C was 1.63%.

Question: What about the viability, T/C [19] of the same compound?
Answer: The viability, T/C was 1.35%.

Question: And the viability, T/C [20]?
Answer: The viability, T/C was 0.89%.

Question: What about the viability, T/C [21] of the same compound?
Answer: Its viability, T/C is 1.13%.

Question: And the viability, T/C [22]?
Answer: The viability, T/C was 0.95%.

Question: And the viability, T/C [23]?
Answer: The viability, T/C was 1.02%.

Question: And the viability, T/C [24]?
Answer: Its viability, T/C is 0.92%.

Question: Cn1nccc1Nc1nccc(-c2ccn(C(CO)c3ccc(Cl)c(F)c3)c(=O)c2)n1 (centres undefined) + Cc1nc(NC(=O)N2CCCC2C(N)=O)sc1-c1ccnc(C(C)(C)C(F)(F)F)c1 was tested. Which IC50 (second compound 0.0316 µM) did it give?
Answer: The IC50 was 297 nM.

Question: What about the IC50 (second compound 0.1 µM) of the same compound?
Answer: The IC50 was 140 nM.

Question: And the IC50 (second compound 0.316 µM)?
Answer: Its IC50 is 34.9 nM.

Question: And the IC50 (second compound 1 µM)?
Answer: Its IC50 is < 31.6 nM.

Question: What about the IC50 (second compound 3.16 µM) of the same compound?
Answer: Its IC50 is < 31.6 nM.

Question: What about the IC50 (second compound 10 µM) of the same compound?
Answer: The IC50 was < 31.6 nM.

Question: What about the viability, T/C [1] of the same compound?
Answer: Its viability, T/C is 89.8%.

Question: What about the viability, T/C [2] of the same compound?
Answer: The viability, T/C was 73.2%.

Question: What about the viability, T/C [3] of the same compound?
Answer: Its viability, T/C is 47.2%.

Question: What about the viability, T/C [4] of the same compound?
Answer: Its viability, T/C is 32.1%.

Question: What about the viability, T/C [5] of the same compound?
Answer: Its viability, T/C is 23.1%.

Question: And the viability, T/C [6]?
Answer: The viability, T/C was 18.4%.

Question: And the viability, T/C [7]?
Answer: Its viability, T/C is 81%.

Question: What about the viability, T/C [8] of the same compound?
Answer: The viability, T/C was 55.8%.

Question: What about the viability, T/C [9] of the same compound?
Answer: The viability, T/C was 36.2%.

Question: What about the viability, T/C [10] of the same compound?
Answer: The viability, T/C was 24%.

Question: What about the viability, T/C [11] of the same compound?
Answer: The viability, T/C was 18.5%.

Question: And the viability, T/C [12]?
Answer: The viability, T/C was 16.2%.

Question: And the viability, T/C [13]?
Answer: The viability, T/C was 51.1%.

Question: What about the viability, T/C [14] of the same compound?
Answer: The viability, T/C was 37.8%.

Question: What about the viability, T/C [15] of the same compound?
Answer: The viability, T/C was 22.6%.

Question: And the viability, T/C [16]?
Answer: Its viability, T/C is 14.6%.

Question: What about the viability, T/C [17] of the same compound?
Answer: The viability, T/C was 10.9%.

Question: And the viability, T/C [18]?
Answer: Its viability, T/C is 8.35%.

Question: What about the viability, T/C [19] of the same compound?
Answer: Its viability, T/C is 27.4%.

Question: And the viability, T/C [20]?
Answer: Its viability, T/C is 20%.

Question: What about the viability, T/C [21] of the same compound?
Answer: The viability, T/C was 12.5%.

Question: What about the viability, T/C [22] of the same compound?
Answer: The viability, T/C was 7.16%.

Question: And the viability, T/C [23]?
Answer: Its viability, T/C is 5.6%.

Question: What about the viability, T/C [24] of the same compound?
Answer: Its viability, T/C is 4.92%.

Question: What about the viability, T/C (second compound 3.16 µM, first compound 0.0316 µM) of the same compound?
Answer: The viability, T/C was 12.3%.

Question: And the viability, T/C (second compound 3.16 µM, first compound 0.1 µM)?
Answer: The viability, T/C was 8.08%.

Question: What about the viability, T/C (second compound 3.16 µM, first compound 0.316 µM) of the same compound?
Answer: Its viability, T/C is 4.7%.

Question: And the viability, T/C (second compound 3.16 µM, first compound 1 µM)?
Answer: Its viability, T/C is 3.17%.

Question: What about the viability, T/C (second compound 3.16 µM, first compound 3.16 µM) of the same compound?
Answer: Its viability, T/C is 2.1%.

Question: And the viability, T/C (second compound 3.16 µM, first compound 10 µM)?
Answer: Its viability, T/C is 1.72%.

Question: And the viability, T/C (second compound 10 µM, first compound 0.0316 µM)?
Answer: Its viability, T/C is 2.73%.

Question: What about the viability, T/C (second compound 10 µM, first compound 0.1 µM) of the same compound?
Answer: The viability, T/C was 2.2%.

Question: And the viability, T/C (second compound 10 µM, first compound 0.316 µM)?
Answer: The viability, T/C was 1.3%.

Question: What about the viability, T/C (second compound 10 µM, first compound 1 µM) of the same compound?
Answer: Its viability, T/C is 0.88%.

Question: And the viability, T/C (second compound 10 µM, first compound 3.16 µM)?
Answer: The viability, T/C was 0.68%.

Question: And the viability, T/C (second compound 10 µM, first compound 10 µM)?
Answer: The viability, T/C was 0.53%.
